Each block holds one compound with its values, some of them ahead of it. The source made the active and inactive calls. The rule behind the calls is not given here.
What was measured:
[1] = target: NACHT, LRR and PYD domains-containing protein 3 (Mus musculus, UniProt Q8R4B8); experiment: Inhibition of NLRP3 in mouse J774.A1 cells assessed as reduction IL-1beta release by ELISA; assay type: cell-based
[2] = target: T1, Apoptosis-associated speck-like protein containing a CARD (Mus musculus) (UniProt Q9EPB4); experiment: Inhibition of LPS/nigericin-induced ASC oligomerization in mouse J774.A1 cells at 0.8 to 3.2 uM by immunoblot analysis; assay type: cell-based; conditions: dose 0.8-3.2 µM
T1 sequence (whole entry): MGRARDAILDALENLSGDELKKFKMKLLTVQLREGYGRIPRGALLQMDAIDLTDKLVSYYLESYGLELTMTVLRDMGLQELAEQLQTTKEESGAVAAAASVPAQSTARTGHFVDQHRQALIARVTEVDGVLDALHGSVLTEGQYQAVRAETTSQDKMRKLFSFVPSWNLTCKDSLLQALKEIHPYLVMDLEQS

Mus musculus [3] = experiment: Antiinflammatory activity against DSS-induced ulcerative colitis male C57BL/6 mouse model assessed as amelioration of crypt loss in colonic tissue at 7.5 to 30 mg/kg administered via oral gavage for 4 days; assay type: functional, organism-based; conditions: dose 7.5-30 mg/kg, time 4.0 day
[4] = target: NACHT, LRR and PYD domains-containing protein 3 (Mus musculus) (UniProt Q8R4B8); experiment: Inhibition of LPS/nigericin-induced NLRP3 oligomerization in mouse J774.A1 cells at 3.2 uM by SDS-PAGE analysis; assay type: cell-based
Mus musculus [5] = experiment: Antiinflammatory activity against DSS-induced ulcerative colitis male C57BL/6 mouse model assessed as reduction in IL-1beta level in colonic tissue at 7.5 to 30 mg/kg administered via oral gavage for 4 days by ELISA; assay type: functional, organism-based; conditions: dose 7.5-30 mg/kg, time 4.0 day
J774.A1 [6] = experiment: Cytotoxicity against mouse J774.A1 cells at 0.4 to 6.4 uM incubated for 24 hrs by CCK-8 assay; assay type: toxicity, cell-based; conditions: j774.a1, 24 h, dose 0.4-6.4 µM
[7] = target: NACHT, LRR and PYD domains-containing protein 3 (Mus musculus) (UniProt Q8R4B8); experiment: Inhibition of NLRP3 inflammasome activation in LPS/nigericin-induced mouse BMDM cells assessed as reduction in IL-1beta release by ELISA; assay type: cell-based; conditions: dose 0.125-4 µM
Mus musculus [8] = experiment: In vivo inhibition of NLRP3 in colonic tissue of DSS-induced ulcerative colitis male C57BL/6 mouse model at 7.5 to 30 mg/kg administered via oral gavage for 4 days by Western blot analysis; assay type: functional, organism-based; conditions: dose 7.5-30 mg/kg, time 4.0 day
[9] = target: NLRP3-NEK7 (Mus musculus) (UniProt Q8R4B8+Q9ES74); experiment: Inhibition of NLRP3/NEK7 protein-protein interaction in LPS/nigericin-induced mouse J774.A1 cells incubated for 6 hrs by coimmunoprecipitation analysis; assay type: cell-based
Mus musculus [10] = experiment: Antiinflammatory activity against DSS-induced ulcerative colitis male C57BL/6 mouse model assessed as amelioration of mucosal ulceration in colonic tissue at 7.5 to 30 mg/kg administered via oral gavage for 4 days; assay type: functional, organism-based; conditions: dose 7.5-30 mg/kg, time 4.0 day
[11] = target: NACHT, LRR and PYD domains-containing protein 3 (Mus musculus) (UniProt Q8R4B8); experiment: Inhibition of NLRP3 inflammasome activation in LPS/nigericin-induced mouse J774.A1 cells assessed as inhibition of GSDMD cleavage at 0.2 to 3.2 uM by Western blot analysis; assay type: cell-based; conditions: dose 0.2-3.2 µM
[12] = target: NACHT, LRR and PYD domains-containing protein 3 (Mus musculus) (UniProt Q8R4B8); experiment: Inhibition of NLRP3 inflammasome activation in LPS/nigericin-induced mouse J774.A1 cells assessed as inhibition of mature IL-1beta release at 0.2 to 3.2 uM by Western blot analysis; assay type: cell-based; conditions: dose 0.2-3.2 µM
Mus musculus [13] = experiment: Antiinflammatory activity against DSS-induced ulcerative colitis male C57BL/6 mouse model assessed as reduction in fecal blood index at 7.5 to 30 mg/kg administered via oral gavage for 4 days; assay type: functional, organism-based; conditions: dose 7.5-30 mg/kg, time 4.0 day
[14] = target: NACHT, LRR and PYD domains-containing protein 3 (Mus musculus) (UniProt Q8R4B8); experiment: Inhibition of NLRP3 inflammasome activation in LPS/nigericin-induced mouse J774.A1 cells assessed as reduction in LDH level […]; assay type: cell-based; conditions: dose 0.2-3.2 µM
Mus musculus [15] = experiment: Effect on DSS-induced body weight loss in male C57BL/6 mouse model of ulcerative colitis at 7.5 to 30 mg/kg administered via oral gavage for 4 days; assay type: functional, organism-based; conditions: dose 7.5-30 mg/kg, time 4.0 day
Mus musculus [16] = experiment: Antiinflammatory activity against DSS-induced ulcerative colitis male C57BL/6 mouse model assessed as increase in colon length at 7.5 to 30 mg/kg administered via oral gavage for 4 days; assay type: functional, organism-based; conditions: dose 7.5-30 mg/kg, time 4.0 day
J774.A1 [17] = experiment: Effect on TNF-alpha secretion in LPS-induced mouse J774.A1 cells at 0.2 to 3.2 uM pre-incubated with compound for 2 hrs followed by LPS-induction and measured after 5 hrs by ELISA; assay type: functional, cell-based; conditions: dose 0.2-3.2 µM, time 7.0 hrs
Mus musculus [18] = experiment: Antiinflammatory activity against DSS-induced ulcerative colitis male C57BL/6 mouse model assessed as reduction in cleaved GSDMD level in colonic tissue at 7.5 to 30 mg/kg administered via oral gavage for 4 days by Western blot analysis; assay type: functional, organism-based; conditions: dose 7.5-30 mg/kg, time 4.0 day
J774.A1 [19] = experiment: Effect on p65 level in LPS-induced mouse J774.A1 cells at 0.2 to 3.2 uM pre-incubated with compound for 2 hrs followed by LPS-induction and measured after 5 hrs by Western blot analysis; assay type: functional, cell-based; conditions: dose 0.2-3.2 µM, time 7.0 hrs
Mus musculus [20] = experiment: Antiinflammatory activity against DSS-induced ulcerative colitis male C57BL/6 mouse model assessed as reduction in caspase-1 level in colonic tissue at 7.5 to 30 mg/kg administered via oral gavage for 4 days by Western blot analysis; assay type: functional, organism-based; conditions: dose 7.5-30 mg/kg, time 4.0 day
Mus musculus [21] = experiment: Antiinflammatory activity against DSS-induced ulcerative colitis male C57BL/6 mouse model assessed as amelioration of epithelial damage in colonic tissue at 7.5 to 30 mg/kg administered via oral gavage for 4 days; assay type: functional, organism-based; conditions: dose 7.5-30 mg/kg, time 4.0 day
HEK-293T = experiment: Cytotoxicity against HEK293T cells at 0.4 to 6.4 uM incubated for 24 hrs by CCK-8 assay; assay type: toxicity, cell-based; conditions: human, dose 0.4-6.4 µM
[22] = target: NACHT, LRR and PYD domains-containing protein 3 (Mus musculus) (UniProt Q8R4B8); experiment: Inhibition of NLRP3 inflammasome activation in LPS/nigericin-induced mouse J774.A1 cells assessed as inhibition of caspase-1 p20 subunit formation at 0.2 to 3.2 uM by Western blot analysis; assay type: cell-based; conditions: dose 0.2-3.2 µM
J774.A1 [23] = experiment: Inhibition of NFkappaB signaling pathway in LPS-induced mouse J774.A1 cells assessed as reduction in IkappaBalpha phosphorylation at 3.2 uM pre-incubated with compound for 2 hrs followed by LPS-induction and measured after 5 hrs by Western blot analysis; assay type: cell-based; conditions: time 7.0 hrs
[24] = target: Nlrp3/Pycard (Mus musculus) (UniProt Q8R4B8+Q9EPB4); experiment: Inhibition of NLRP3/ASC protein-protein interaction in LPS/nigericin-induced mouse J774.A1 cells at 3 uM by coimmunoprecipitation analysis; assay type: cell-based
[25] = target: NACHT, LRR and PYD domains-containing protein 3 (Mus musculus) (UniProt Q8R4B8); experiment: Inhibition of NLRP3 inflammasome activation in LPS/nigericin-primed mouse BMDM cells assessed as inhibition of ASC speck formation incubated for 1 hr by DAPI staining based immunofluorescence analysis; assay type: cell-based
[26] = target: NACHT, LRR and PYD domains-containing protein 3 (Mus musculus) (UniProt Q8R4B8); experiment: Inhibition of NLRP3 inflammasome activation in LPS/nigericin-induced mouse J774.A1 cells assessed as reduction in IL-1beta release by ELISA; assay type: cell-based; conditions: dose 0.125-4 µM
J774.A1 [27] = experiment: Effect on phosphorylated p65 level in LPS-induced mouse J774.A1 cells at 0.2 to 3.2 uM pre-incubated with compound for 2 hrs followed by LPS-induction and measured after 5 hrs by Western blot analysis; assay type: functional, cell-based; conditions: dose 0.2-3.2 µM, time 7.0 hrs

NACHT, LRR and PYD domains-containing protein 3, sequence (Q8R4B8 whole entry, the tested form may be a part): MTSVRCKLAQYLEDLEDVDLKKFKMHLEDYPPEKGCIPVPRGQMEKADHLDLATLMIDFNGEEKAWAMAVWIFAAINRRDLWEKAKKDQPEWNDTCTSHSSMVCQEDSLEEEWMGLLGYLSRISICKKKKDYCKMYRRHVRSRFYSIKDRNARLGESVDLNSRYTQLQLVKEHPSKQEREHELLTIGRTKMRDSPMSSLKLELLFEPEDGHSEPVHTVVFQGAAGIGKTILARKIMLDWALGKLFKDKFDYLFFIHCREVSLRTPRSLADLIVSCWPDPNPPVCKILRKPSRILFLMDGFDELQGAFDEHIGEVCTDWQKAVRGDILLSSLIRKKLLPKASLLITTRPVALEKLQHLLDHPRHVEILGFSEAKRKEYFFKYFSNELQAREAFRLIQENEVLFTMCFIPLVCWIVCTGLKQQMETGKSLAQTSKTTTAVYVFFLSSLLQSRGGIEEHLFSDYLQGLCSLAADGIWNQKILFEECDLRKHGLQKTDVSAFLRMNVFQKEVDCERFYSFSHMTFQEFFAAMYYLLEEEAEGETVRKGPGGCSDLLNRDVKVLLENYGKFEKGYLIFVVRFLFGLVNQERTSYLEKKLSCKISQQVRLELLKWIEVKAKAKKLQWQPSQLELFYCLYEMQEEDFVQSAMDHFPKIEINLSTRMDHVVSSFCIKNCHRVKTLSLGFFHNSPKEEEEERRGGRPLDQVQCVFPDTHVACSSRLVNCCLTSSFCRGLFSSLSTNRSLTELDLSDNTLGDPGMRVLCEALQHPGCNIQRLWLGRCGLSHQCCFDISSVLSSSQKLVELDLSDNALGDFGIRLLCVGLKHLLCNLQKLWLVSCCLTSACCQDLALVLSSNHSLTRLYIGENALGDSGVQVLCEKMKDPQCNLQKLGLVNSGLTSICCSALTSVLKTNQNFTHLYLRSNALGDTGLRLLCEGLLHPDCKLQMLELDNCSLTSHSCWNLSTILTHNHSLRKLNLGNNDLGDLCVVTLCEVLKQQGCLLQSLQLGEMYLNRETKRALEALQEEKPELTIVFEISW
NACHT, LRR and PYD domains-containing protein 3 (Mus musculus), sequence (Q8R4B8 whole entry, the tested form may be a part): as above
NLRP3-NEK7 (Mus musculus), sequence (Q8R4B8 whole entry, looked up): as the sequence (Q8R4B8 whole entry, the tested form may be a part) above
NLRP3-NEK7 (Mus musculus), sequence (Q9ES74 whole entry, looked up): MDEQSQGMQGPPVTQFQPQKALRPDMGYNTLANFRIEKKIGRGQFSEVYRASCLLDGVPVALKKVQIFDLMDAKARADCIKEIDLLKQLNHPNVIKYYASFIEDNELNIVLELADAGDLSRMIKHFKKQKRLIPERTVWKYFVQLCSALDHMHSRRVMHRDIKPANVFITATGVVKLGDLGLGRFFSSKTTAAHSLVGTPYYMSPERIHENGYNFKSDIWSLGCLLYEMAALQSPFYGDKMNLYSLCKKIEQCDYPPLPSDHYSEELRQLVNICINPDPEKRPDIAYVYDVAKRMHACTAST
Nlrp3/Pycard (Mus musculus), sequence (Q8R4B8 whole entry, looked up, one chain of several, the tested form may be a part): as the sequence (Q8R4B8 whole entry, the tested form may be a part) above

SMILES: CC[C@H](NC(=O)c1c(C)c(-c2cccc(F)c2)nc2c([N+](=O)[O-])cccc12)c1ccccc1
inhibition [2]: Active
Activity (Mus musculus [3]): Active
inhibition [4]: Active
Activity (Mus musculus [5]): Active
Activity (J774.A1 [6]): Non-toxic
inhibition [7]: Dose-dependent-effect
inhibition (Mus musculus [8]): Active
inhibition [9]: inactive
Activity (Mus musculus [10]): Active
inhibition [11]: Active
inhibition [12]: Active
Activity (Mus musculus [13]): Active
IC50 [1]: 180 nM
inhibition [14]: Dose-dependent-effect
Activity (Mus musculus [15]): No effect
Activity (Mus musculus [16]): Active
Activity (J774.A1 [17]): No effect
Activity (Mus musculus [18]): Active
Activity (J774.A1 [19]): No effect
Activity (Mus musculus [20]): Active
Activity (Mus musculus [21]): Active
Activity (HEK-293T): Non-toxic
inhibition [22]: Active
inhibition (J774.A1 [23]): Active; Slight Inhibitory Effect On P-Ikappabalpha
inhibition [24]: Active
inhibition [25]: Active
inhibition [26]: Dose-dependent-effect
Activity (J774.A1 [27]): No effect

SMILES: CC[C@@H](NC(=O)c1cc(-c2ccccc2)nc2ccccc12)c1ccccc1
IC50 [1]: 2080 nM

SMILES: CC[C@H](NC(=O)c1c(C)c(-c2cccc(Cl)c2)nc2ccccc12)c1ccccc1
IC50 [1]: 890 nM

SMILES: O=C(NC1CC(F)(F)C1)c1cc(-c2ccccc2)nc2ccccc12
IC50 [1]: 5800 nM

SMILES: CCN(CC)CCCC(C)NC(=O)c1cc(-c2ccccc2)nc2ccccc12 (configuration not stated)
IC50 [1]: 11400 nM

SMILES: CCC(C)NC(=O)c1cc(-c2ccccc2)nc2ccccc12 (configuration not stated)
IC50 [1]: 39500 nM

SMILES: CC[C@H](NC(=O)c1c(C)c(-c2ccccc2)nc2ccccc12)c1ccccc1 [SB-222200]
IC50 [1]: 1270 nM

SMILES: CC[C@H](NC(=O)c1c(C)c(-c2cccc(F)c2)nc2c(NC(C)=O)cccc12)c1ccccc1
IC50 [1]: 720 nM

SMILES: Cc1ccccc1CNC(=O)c1cc(-c2ccccc2)nc2ccccc12
IC50 [1]: 4310 nM

SMILES: CC[C@H](NC(=O)c1ccnc2ccccc12)c1ccccc1
IC50 [1]: 126000 nM

SMILES: CC[C@H](NC(=O)c1c(C)c(-c2cccc(F)c2)nc2cc(OC)ccc12)c1ccccc1
IC50 [1]: 1200 nM

Now from value to compound, other results behind:

IC50 [1]: 1210 nM
SMILES: CC[C@H](NC(=O)c1c(C)c(-c2cccc(F)c2)nc2ccc(Br)cc12)c1ccccc1

IC50 [1]: 2750 nM
SMILES: CC[C@H](NC(=O)c1c(C)c(-c2ccc(C(F)(F)F)cc2)nc2ccccc12)c1ccccc1

inhibition [2]: Active
inhibition [4]: Active
inhibition [9]: inactive
IC50 [1]: 590 nM
inhibition [24]: Active
inhibition [25]: Active
SMILES: CC[C@H](NC(=O)c1c(C)c(-c2cccc(F)c2)nc2ccccc12)c1ccccc1
Activity (J774.A1 [6]): Non-toxic

IC50 [1]: 3080 nM
SMILES: CSc1ccccc1NC(=O)c1cc(-c2ccccc2)nc2ccccc12

IC50 [1]: 420 nM
SMILES: CC[C@H](NC(=O)c1c(C)c(-c2cccc(F)c2)nc2c(NS(=O)(=O)C3CC3)cccc12)c1ccccc1

IC50 [1]: 13800 nM
SMILES: Cc1ccccc1NC(=O)c1cc(-c2ccccc2)nc2ccccc12

IC50 [1]: 920 nM
SMILES: CC[C@H](NC(=O)c1c(C)c(-c2cccc(F)c2)nc2cc(Cl)ccc12)c1ccccc1

IC50 [1]: 940 nM
SMILES: CC[C@H](NC(=O)c1c(C)c(-c2cccc(F)c2)nc2ccc([N+](=O)[O-])cc12)c1ccccc1

— ChEMBL document CHEMBL6134828, “Discovery, synthesis, and biological mechanism evaluation of novel quinoline derivatives as potent NLRP3 inhibitors” (Eur J Med Chem, 2025)
